Measurements: article PMC7549214 (Malaria Journal, 2020)
Like-named read-outs stand apart in the source and are kept apart here.

What was measured:
[1] = tested on: human HDAC (HeLa nuclear extract); assay: HDAC activity screening, fluorescence-based, HeLa nuclear extract; assay type: biochemical
Method: HeLa nuclear extract was used as the enzyme source. […] The assay was performed in 96-well black microplates, and the total volume of the assay was set at 100 µl. […] The enzyme mixture was prepared by adding […] of the diluted enzyme (HeLa nuclear extract) to […] of HDAC buffer. From the enzyme mixture, 40 µl was taken and mixed with 10 µl of test compound (final concentration from 0.01 to 10 µM) or vehicle (control). The final mixture (50 µl) was added to each well which was then pre-incubated at 37 °C for 10 min. The HDAC reaction was started by adding 50 µl of HDAC substrate: […] The plate was incubated at 37 °C for 45 min. Trypsin stop solution (50 µl) was added to the well, and the plate was further incubated at 37 °C for 15 min to stop the reaction. The release of AMC was monitored by measuring the fluorescence at an excitation wavelength of 360 nm and an emission wavelength of 460 nm. Buffer and substrate alone served as blank.

[2] = target: T1, PfHDAC1 (Plasmodium falciparum, UniProt Q7K6A1); assay: PfHDAC1 fluorescent activity assay; assay type: biochemical
T1 construct: His-tag; FLAG-tag; purchased BPS Bioscience
T1 sequence (Q7K6A1 1-449): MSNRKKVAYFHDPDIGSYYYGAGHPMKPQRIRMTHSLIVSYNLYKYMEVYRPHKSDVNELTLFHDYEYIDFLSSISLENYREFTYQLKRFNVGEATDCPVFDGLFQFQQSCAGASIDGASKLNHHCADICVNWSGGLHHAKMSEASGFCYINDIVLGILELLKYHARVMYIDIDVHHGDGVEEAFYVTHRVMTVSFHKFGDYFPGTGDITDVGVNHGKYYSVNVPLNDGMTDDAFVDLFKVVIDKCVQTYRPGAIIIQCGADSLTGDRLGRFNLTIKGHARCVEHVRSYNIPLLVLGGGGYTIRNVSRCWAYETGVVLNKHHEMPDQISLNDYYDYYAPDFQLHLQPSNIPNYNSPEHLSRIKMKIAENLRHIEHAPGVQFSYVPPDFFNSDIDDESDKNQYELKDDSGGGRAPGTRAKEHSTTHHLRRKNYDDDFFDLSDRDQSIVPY

[3] = tested on: male gametocytes; assay: Male gametocyte functional viability assay; assay type: cell-based; details: Plasmodium falciparum
Method: Gametocyte cultures were tested for functional viability and maturity after 14 days. Testing functional viability was done by quantifying male gametocyte formation, which was carried out by withdrawing 200 μl of culture. Following this, culture was centrifuged, and the pellet was resuspended in 5 μl ookinete medium (RPMI medium with 25 mM HEPES, 50 mg/l hypoxanthine, 2 g/l sodium bicarbonate, 100 μM xanthurenic acid, and 10% A^+ human serum). The culture was observed under a microscope. […] The plates were then incubated at 37 °C for 24 h. Gamete formation was induced on day 15 and observed under the microscope following the method described by Ruecker et al.. The assay was performed using four independent biological replicates.

[4] = tested on: female gametocytes; assay: Female gametocyte functional viability assay; assay type: cell-based; details: Plasmodium falciparum
[5] = tested on: Cam3.I (MRA1240); assay: microbe, parasite or virus in culture; assay type: cell-based; details: Plasmodium falciparum
[6] = Microsomal stability; assay type: in vitro ADME, mouse; details: MLM, Test Conc. 10 µM
[7] = Microsomal stability; assay type: in vitro ADME, rat; details: RLM, Test Conc. 10 µM
[8] = in vitro; assay type: in vitro ADME; details: mouse, plasma
[9] = in vitro; assay type: in vitro ADME; details: dog, plasma
[10] = target: CYP2C19 (Homo sapiens, UniProt P33261); assay: CYP inhibition; assay type: in vitro ADME; details: read-out: CYP inhibition IC50, CYP 2C19
Sequence of CYP2C19 (P33261 whole entry, species assumed): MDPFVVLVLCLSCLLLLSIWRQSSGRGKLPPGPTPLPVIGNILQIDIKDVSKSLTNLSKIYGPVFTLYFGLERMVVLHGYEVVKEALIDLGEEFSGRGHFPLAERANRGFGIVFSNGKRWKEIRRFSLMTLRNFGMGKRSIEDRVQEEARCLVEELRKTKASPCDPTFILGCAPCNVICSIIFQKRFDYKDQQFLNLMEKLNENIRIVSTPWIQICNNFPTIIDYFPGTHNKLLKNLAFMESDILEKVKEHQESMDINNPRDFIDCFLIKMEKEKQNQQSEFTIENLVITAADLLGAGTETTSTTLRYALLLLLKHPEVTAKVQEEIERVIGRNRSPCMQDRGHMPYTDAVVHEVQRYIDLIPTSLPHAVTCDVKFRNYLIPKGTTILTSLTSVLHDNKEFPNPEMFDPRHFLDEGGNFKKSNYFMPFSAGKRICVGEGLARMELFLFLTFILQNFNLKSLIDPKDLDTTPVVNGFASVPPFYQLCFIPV

[11] = target: CYP 2D6 (Homo sapiens, UniProt P10635); assay: CYP inhibition; assay type: in vitro ADME
Sequence of CYP 2D6 (P10635 whole entry, species assumed): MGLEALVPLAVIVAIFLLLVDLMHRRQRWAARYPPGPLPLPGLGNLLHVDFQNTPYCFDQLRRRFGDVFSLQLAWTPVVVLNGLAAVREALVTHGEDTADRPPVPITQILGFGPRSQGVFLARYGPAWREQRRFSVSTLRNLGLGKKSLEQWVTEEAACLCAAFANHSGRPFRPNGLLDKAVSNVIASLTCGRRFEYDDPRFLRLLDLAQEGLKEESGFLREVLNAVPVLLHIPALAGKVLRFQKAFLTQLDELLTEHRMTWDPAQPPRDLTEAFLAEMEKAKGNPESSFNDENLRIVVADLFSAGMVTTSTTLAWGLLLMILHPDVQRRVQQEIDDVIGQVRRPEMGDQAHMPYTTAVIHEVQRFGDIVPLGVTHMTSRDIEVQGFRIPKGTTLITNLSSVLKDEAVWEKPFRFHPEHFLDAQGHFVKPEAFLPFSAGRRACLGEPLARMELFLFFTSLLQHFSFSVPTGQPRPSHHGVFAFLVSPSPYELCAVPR

[12] = target: CYP 3A4 (Homo sapiens, UniProt P08684); assay: CYP inhibition; assay type: in vitro ADME
Sequence of CYP 3A4 (P08684 whole entry, species assumed): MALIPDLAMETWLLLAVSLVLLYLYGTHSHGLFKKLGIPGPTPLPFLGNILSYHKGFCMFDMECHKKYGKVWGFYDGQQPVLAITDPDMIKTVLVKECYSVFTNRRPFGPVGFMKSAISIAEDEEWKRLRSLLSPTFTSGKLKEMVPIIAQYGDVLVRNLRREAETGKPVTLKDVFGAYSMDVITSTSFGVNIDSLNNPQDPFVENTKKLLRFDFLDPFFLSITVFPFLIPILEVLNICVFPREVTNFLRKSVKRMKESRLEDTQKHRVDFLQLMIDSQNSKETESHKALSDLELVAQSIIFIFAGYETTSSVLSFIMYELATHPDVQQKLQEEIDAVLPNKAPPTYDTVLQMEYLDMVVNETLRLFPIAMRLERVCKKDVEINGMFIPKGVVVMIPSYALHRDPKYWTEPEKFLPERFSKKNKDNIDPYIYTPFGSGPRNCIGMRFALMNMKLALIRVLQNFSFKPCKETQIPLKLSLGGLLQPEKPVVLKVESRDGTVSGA

[13] = Cytotoxicity; assay type: cell-based; details: human, THP-1 cells
[14] = tested on: THP-1; assay: Cytotoxicity; assay type: cell-based
[15] = target: hERG (Homo sapiens, UniProt Q12809); assay: hERG binding
Sequence of hERG (Q12809 whole entry): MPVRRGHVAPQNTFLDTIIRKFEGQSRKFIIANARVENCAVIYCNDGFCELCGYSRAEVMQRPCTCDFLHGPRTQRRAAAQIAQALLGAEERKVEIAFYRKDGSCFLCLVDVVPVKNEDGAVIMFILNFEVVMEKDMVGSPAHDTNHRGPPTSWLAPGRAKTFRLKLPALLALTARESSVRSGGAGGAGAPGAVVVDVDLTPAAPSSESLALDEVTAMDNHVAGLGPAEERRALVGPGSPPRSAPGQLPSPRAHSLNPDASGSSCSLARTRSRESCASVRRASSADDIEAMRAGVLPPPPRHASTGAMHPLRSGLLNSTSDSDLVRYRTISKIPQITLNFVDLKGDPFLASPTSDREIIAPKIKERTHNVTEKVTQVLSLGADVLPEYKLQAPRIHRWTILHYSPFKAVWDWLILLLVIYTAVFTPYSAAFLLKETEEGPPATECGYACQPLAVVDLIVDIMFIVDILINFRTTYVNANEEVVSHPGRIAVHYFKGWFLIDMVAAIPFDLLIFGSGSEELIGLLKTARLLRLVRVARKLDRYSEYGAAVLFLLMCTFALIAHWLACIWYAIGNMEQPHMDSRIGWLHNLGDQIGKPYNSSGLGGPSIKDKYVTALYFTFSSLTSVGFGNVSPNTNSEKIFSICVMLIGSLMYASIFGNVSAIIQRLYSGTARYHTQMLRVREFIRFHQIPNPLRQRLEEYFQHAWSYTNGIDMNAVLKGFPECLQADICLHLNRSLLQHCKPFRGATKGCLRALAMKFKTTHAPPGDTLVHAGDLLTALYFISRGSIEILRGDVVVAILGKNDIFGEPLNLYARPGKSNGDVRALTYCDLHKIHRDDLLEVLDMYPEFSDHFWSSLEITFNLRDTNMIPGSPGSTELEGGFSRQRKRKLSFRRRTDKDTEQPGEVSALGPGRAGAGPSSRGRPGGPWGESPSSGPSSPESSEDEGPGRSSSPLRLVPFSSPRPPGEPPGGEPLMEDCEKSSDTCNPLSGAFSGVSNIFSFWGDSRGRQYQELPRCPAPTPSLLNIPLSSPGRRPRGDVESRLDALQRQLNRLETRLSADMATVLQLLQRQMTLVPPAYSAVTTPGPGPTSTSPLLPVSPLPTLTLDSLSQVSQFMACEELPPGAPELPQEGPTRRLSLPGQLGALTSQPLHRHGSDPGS

[16] = Single dose pharmacokinetics in Balb/C mice; assay type: in vivo; details: normal Balb/C mice; for half-life / AUC(0-t) / Cmax / Tmax: male, mouse, plasma; for half-life: BALB/c, 50 mg/kg
Method: Female […] mice (n = 3) aged 7-8 weeks and weighing around 20 to 22 g were used for experimentation after a minimum 7 days of acclimation. Male BALB/c mice (n = 3) aged 8-10 weeks and weighing around 20 to 22 g were also used for experimentation after a minimum 7 days of acclimation. […] Feed was offered 2 h post-dose. Under mild isofluorane […], blood samples were collected by retro-orbital route into labelled centrifuge tubes containing K2EDTA anticoagulant at a concentration of 2 mg/mL of blood during the next 24 h post-dose. Collected blood samples were centrifuged at 4000 rpm for 10 min, and harvested plasma samples were stored at - 80 °C until analysis.

[17] = Repeated dose 14-day toxicity study;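 also: rats dosed once daily for 14 days, test item in Tween 80 plus methylcellulose vehicle at 10 mL/kg bw, compared against vehicle-treated G1 controls by one-way ANOVA with Dunnett test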

SMILES: O=C(NO)c1ccc(Cn2cc(-c3ccc(CN4CCCC4)cc3)nn2)cc1 [FNDR-20123]
- Human HDAC % inhibition @1μM ([1]; 1μM): 95%
- IC50 ([1]; HeLa nuclear extract, read-out: Human HDAC IC50): 3 nM
- IC50 ([1]; single experiment assays, read-out: IC50 HeLa nuclear extract): 3 nM
- IC50 [2]: 31 nM
- IC50 [3]: 190 nM
- IC50 [4]: > 5000 nM
- IC50 [5]: 22.1 nM
- Microsomal stability (% remaining at 120 min) [6]: 76.15%
- remaining at 2 h, 10 µM ([6]; mouse, liver microsomes, read-out: Microsomal stability (% remaining at 120 min)): > 75%
- Microsomal stability (% remaining at 120 min) [7]: 74.56%
- remaining at 2 h, 10 µM ([7]; rat, liver microsomes, read-out: Microsomal stability (% remaining at 120 min)): > 75%
- remaining at 4 h [8]: 89.2%
- remaining at 4 h [9]: 97.7%
- IC50 [10]: > 60000 nM
- IC50 [11]: 28000 nM
- IC50 [12]: 27000 nM
- IC50 [13]: 114000 nM
- Cytotoxicity to THP-1 cell line [14]: negligible cytotoxicity
- IC50 [15]: > 100000 nM
- half-life ([16]; im, intramuscular): 8.72 h
- half-life ([16]; po): 2 h
- half-life ([16]; sc, subcutaneous): 9.21 h
- AUC(0-t) ([16]; im, intramuscular, 50 mg/Kg): 7220 ng·h/mL
- Cmax ([16]; im, intramuscular, 50 mg/Kg): 15700 ng/mL
- Tmax ([16]; im, intramuscular, 50 mg/Kg): 0.08 h
- AUC(0-t) ([16]; sc, subcutaneous, 50 mg/Kg): 11000 ng·h/mL
- Cmax ([16]; sc, subcutaneous, 50 mg/Kg): 14000 ng/mL
- Tmax ([16]; sc, subcutaneous, 50 mg/Kg): 0.08 h
- AUC(0-t) ([16]; oral, 50 mg/Kg): 327 ng·h/mL
- Cmax ([16]; oral, 50 mg/Kg): 184 ng/mL
- Tmax ([16]; oral, 50 mg/Kg): 1 h
- t1/2 ([16]; oral, 50 mg/Kg): 2.02 h
- Toxic effects on body weights and organ weights ([17]; 14-day oral, 50, 100 and 150 mg/kg body weight, male and female rats): no adverse toxic effects on body weights and organ weights
- Adverse clinical signs or mortality ([17]; 14-day repeat dose oral gavage, both sexes): did not reveal any adverse clinical signs or mortality
- Abnormality in body weight or gross organ pathology ([17]; 14-day, 100 mg/kg daily dose): did not show any abnormality in body weight or gross organ pathology
- Fasting body weight ([17]; female, G2 50 mg/kg): 149.51 g
- Body weight ([17]; female, G2 50 mg/kg bw, day 1): 146.45 g
- Body weight ([17]; female, G2 50 mg/kg bw, day 7): 150.70 g
- Body weight ([17]; female, G2 50 mg/kg bw, day 14): 161.49 g
- Body weight ([17]; female, G3 100 mg/kg bw, day 1): 146.70 g
- Body weight ([17]; female, G3 100 mg/kg bw, day 7): 145.63 g
- Body weight ([17]; female, G3 100 mg/kg bw, day 14): 158.43 g
- Fasting body weight ([17]; female, G4 150 mg/kg): 134.25 g
- Body weight ([17]; female, G4 150 mg/kg bw, day 7): 139.82 g
- Body weight ([17]; female, G4 150 mg/kg bw, day 14): 142.91 g
- Fasting body weight ([17]; male, G2 50 mg/kg): 189.75 g
- Body weight ([17]; male, G2 50 mg/kg bw, day 1): 166.04 g
- Body weight ([17]; male, G2 50 mg/kg bw, day 7): 190.40 g
- Body weight ([17]; male, G2 50 mg/kg bw, day 14): 209.30 g
- Fasting body weight ([17]; male, G3 100 mg/kg): 163.82 g
- Body weight ([17]; male, G3 100 mg/kg bw, day 1): 166.39 g
- Body weight ([17]; male, G3 100 mg/kg bw, day 7): 173.72 g
- Body weight ([17]; male, G3 100 mg/kg bw, day 14): 177.16 g
- Fasting body weight ([17]; male, G4 150 mg/kg): 174.95 g
- Body weight ([17]; male, G4 150 mg/kg bw, day 1): 170.86 g
- Body weight ([17]; male, G4 150 mg/kg bw, day 7): 180.10 g
- Body weight ([17]; male, G4 150 mg/kg bw, day 14): 188.27 g
